Experimental data published in patent US20220378738A1, “(+)-TRANS TETRAHYDROCANNABINOL ((+)-TRANS-THC) FOR USE AS A MEDICAMENT” (GW Research Limited, priority 2019, published 2022).
Marks after values point to notes of the source that are not given here.

How the values were obtained:
[1] = depending on the assay; cited from earlier work
[2] = system: mouse supramaximal electroshock seizure (MES) model of generalized seizures; experiment: Maximal electroshock (MES) test, number of tonic convulsions; type: in vivo; conditions: for % change from vehicle (number of tonic clonic seizures after MES): 250 mg/kg I.P., pre-treatment time 30 mins, N 16
Method: Mice were administered MES (30 mA, rectangular current: 0.6 ms pulse width, 0.2 s duration, 50 Hz) via corneal electrodes connected to a constant current shock generator (Ugo Basile: type 7801) to reliably produce tonic hind limb convulsions. The number of tonic convulsions was recorded.
Sixteen mice were studied per group. The test was performed blind.
The test substance, (+)-trans-THC, was evaluated at 4 doses (3, 10, 30 and 300 mg/kg), administered i.p. 60 minutes before MES, and compared with a vehicle control group (administered under the same experimental conditions).
Valproate (positive control) was administered at 250 mg/kg i.p. 30 minutes before MES, was used as a reference substance and was compared with a vehicle group (administered i.p. 60 minutes before MES).
Data was analysed by comparing treated groups with the appropriate vehicle control using 2-tailed Fisher's Exact Probability tests (p<0.05 considered significant).

[3] = system: mouse model of pain, the hotplate test; experiment: Hotplate test (52° C.), withdrawal threshold; type: in vivo; conditions: for Withdrawal threshold (sec) Mean +/− SEM: N 13
Method: Mice underwent a minimum habituation period of 7 days prior to study commencement. Naïve mice were acclimatised to the procedure room in their home cages, with food and water available ad libitum.
Animals were treated with either treatment vehicle, (+)-trans-THC at 3, 10, 30 and 300 mg/kg at 10 ml/kg i.p. or Morphine 10 mg/kg or Morphine vehicle (Saline) at 10 ml/kg i.p.
Animals were placed onto a hot plate set at 52° C. and time to withdrawal threshold (first response of lifting, licking front or hind paws or trying to escape) was taken at 1-hour post treatment, or at 0.5 hour after the positive control.
Animals were culled by a schedule 1 method, immediately after the measurement.
Data were analysed by comparing withdrawal thresholds back to Vehicle treated group.

In the case of `CCCCCc1cc(O)c2c(c1)OC(C)(C)[C@@H]1CCC(C)=C[C@@H]21` [(−)-trans-THC, (−)-trans-tetrahydrocannabinol], the “Potency relative to the (+)-trans-THC isomer” value [1] is listed as 6-100 times.

In the case of `CCCC(CCC)C(=O)O` [Valproate], the “% change from vehicle (number of tonic clonic seizures after MES)” value [2] is reported as 100.0% and the “% change from vehicle (number of tonic clonic seizures after MES)” value ([2]; listed as valproate) is reported as 100%.

For `CN1CC[C@]23c4c5ccc(O)c4O[C@H]2[C@@H](O)C=C[C@H]3[C@H]1C5` [Morphine], the “Withdrawal threshold (sec) Mean +/− SEM” value ([3]; 10 mg/kg I.P., 0.5 hour after treatment) was 20.25 +/− 1.71 *** sec and the “Withdrawal threshold (sec) Mean +/− SEM” value ([3]; 10 mg/kg I.P., 0.5 hour after treatment, listed as morphine) was “significant increase in the withdrawal threshold compared to vehicle”.

For `CCCCCc1cc(O)c2c(c1)OC(C)(C)[C@H]1CCC(C)=C[C@H]21` (relative stereo) [(+)-trans-THC, (+)-trans-tetrahydrocannabinol], the “Anti-convulsant effect in the MES model (overall conclusion)” value ([2]; 3, 10, 30 and 300 mg/kg i.p.) was “no anti-convulsant effect”, the “Withdrawal threshold (sec) Mean +/− SEM” value ([3]; 3 mg/kg I.P., 1-hour post treatment) was 11.05 ± 0.72 s and the “Withdrawal threshold (sec) Mean +/− SEM” value ([3]; 10 mg/kg I.P., 1-hour post treatment) was 12.63 ± 0.81 s. The “Withdrawal threshold (sec) Mean +/− SEM” value ([3]; 30 mg/kg I.P., 1-hour post treatment) was 13.38 ± 1.03 s and the “Anti-nociceptive effect in an animal model of pain (overall conclusion)” value ([3]; hotplate, 3-300 mg/kg i.p.) was “exhibits an anti-nociceptive effect”.
